According to US11602534B2, “Pyrimidine derivative kinase inhibitors” (HEFEI INSTITUTES OF PHYSICAL SCIENCE, CHINESE ACADEMY OF …, priority 2017, dated 2023):
Where a name gives a salt, the structure may show the parent alone.

What was measured:
Tel-cKit/T670I-BaF3 = assay: Proliferation of Tel-cKit/T670I-BaF3 cells, CCK8 cell viability assay; format: cell-based; conditions: Mus musculus, 72 hours, stably expressing cKIT/T670I
Excerpt: (§1) In this example the following cells were used: […] (purchased from ATCC), mouse P210-BaF3 (stably expressing BCR-ABL mutant activated kinase), mouse P210/T315I-BaF3 (stably expressing BCR-ABL/T315I mutant activated kinase), mouse FLT3-ITD-BaF3 (stably expressing FLT3/ITD mutant activated kinase), mouse TEL-FLT3-BaF3 (stably expressing FLT3 kinase), mouse TEL-cKIT-BaF3 (stably expressing cKIT kinase), mouse BaF3-tel/T670I-cKit (stably expressing cKIT/T670I mutant activated kinase), mouse Tel-VEGFR2-BaF3 (stably expressing VEGFR2 kinase), mouse Tel-PDGFRα-BaF3 (stably expressing PDGFRα kinase), mouse Tel-PDGFRβ-BaF3 (stably expressing PDGFRβ kinase), mouse Tel-RET-BaF3 (stably expressing RET kinase). The above cell lines were all constructed by our laboratory according to the following method: the kinase region sequences of human P210, P210/T315I, FLT3/ITD, FLT3, cKIT, cKIT/T670I, VEGFR2, PDGFRα, PDGFRβ, RET were respectively amplified by PCR, and inserted into MSCV-Puro vectors having N-terminal TEL or TPR fragments (Clontech). The vectors were stably transfected into mouse BaF3 cells by means of retrovirus, and the growth factor IL-3 were removed, eventually obtaining cell lines that depend on transferred protein P210, P210/T315I, FLT3/ITD, FLT3, cKIT, cKIT/T670I, VEGFR2, PDGFRα, PDGFRβ, or RET.
(§2) GI50 (unit: μM) was calculated by quantifying the number of living cells based on quantitative measurement of reductive dehydrogenase in living cells with CCK8 cell viability assay kit (Bestbio, China).

TEL-VEGFR2-BaF3 = assay: Proliferation of TEL-VEGFR2-BaF3 cells, CCK8 cell viability assay; format: cell-based; conditions: Mus musculus, 72 hours, stably expressing VEGFR2 kinase
Excerpt: as §1, §2

Tel-cKit-BaF3 = assay: Proliferation of Tel-cKit-BaF3 cells, CCK8 cell viability assay; format: cell-based, mouse; conditions: Mus musculus; 72 hours, CCK8; stably expressing cKIT kinase
Excerpt: as §1, §2

Tel-FLT3-BaF3 = assay: Proliferation of Tel-FLT3-BaF3 cells, CCK8 cell viability assay; format: cell-based; conditions: Mus musculus, 72 hours, stably expressing FLT3 kinase
Excerpt: as §1, §2

FLT3-ITD-BaF3 = assay: Proliferation of FLT3-ITD-BaF3 cells, CCK8 cell viability assay; format: cell-based; conditions: Mus musculus, 72 hours, stably expressing FLT3/ITD
Excerpt: as §1, §2

Tel-RET-BaF3 = assay: Proliferation of Tel-RET-BaF3 cells, CCK8 cell viability assay; format: cell-based; conditions: Mus musculus, 72 hours, stably expressing RET kinase
Excerpt: as §1, §2

TEL-PDGFRα-BaF3 = assay: Proliferation of TEL-PDGFRα-BaF3 cells, CCK8 cell viability assay; format: cell-based; conditions: Mus musculus, 72 hours, stably expressing PDGFRα kinase
Excerpt: as §1, §2

TEL-PDGFRβ-BaF3 = assay: Proliferation of TEL-PDGFRβ-BaF3 cells, CCK8 cell viability assay; format: cell-based; conditions: Mus musculus, 72 hours, stably expressing PDGFRβ kinase
Excerpt: as §1, §2

BaF3 = assay: Proliferation of BaF3 cells, CCK8 cell viability assay; format: cell-based; conditions: Mus musculus, 72 hours
Excerpt: as §1, §2

P210/T315I-BaF3 = assay: Proliferation of P210/T315I-BaF3 cells, CCK8 cell viability assay; format: cell-based; conditions: Mus musculus, 72 hours, stably expressing BCR-ABL/T315I
Excerpt: as §1, §2

P210-BaF3 = assay: Proliferation of P210-BaF3 cells, CCK8 cell viability assay; format: cell-based; conditions: Mus musculus, 72 hours, stably expressing BCR-ABL mutant activated kinase
Excerpt: as §1, §2

Row | GI50 (Tel-cKit/T670I-BaF3) [µM] | GI50 (TEL-VEGFR2-BaF3) [µM] | GI50 (Tel-cKit-BaF3) [µM] | GI50 (Tel-FLT3-BaF3) [µM] | GI50 (FLT3-ITD-BaF3) [µM] | GI50 (Tel-RET-BaF3) [µM] | GI50 (TEL-PDGFRα-BaF3) [µM] | GI50 (TEL-PDGFRβ-BaF3) [µM] | GI50 (BaF3) [µM] | GI50 (P210/T315I-BaF3) [µM] | GI50 (P210-BaF3) [µM] | SMILES
1 | 0.99 | 0.202 | 0.34 | 0.066 | 0.017 | 4.6 | 0.014 | 0.277 | > 10 |  |  | Cc1ccc(NC(=O)Nc2ccc(Oc3cc(NC4CCN(C(=O)OC(C)(C)C)CC4)ncn3)cc2)cc1C(F)(F)F [Example 99, 4-(6-{4-[3-(4-methyl-3-trifluoromethyl-phenyl)-ureido]-phenoxy}-pyrimidin-4-ylamino)-piperidin-1-tert-butyl Formate]
2 | 0.94 | 0.508 | 2.85 | 0.34 | 0.15 | 1.98 | 0.034 | 0.117 | 8.12 |  |  | Cc1ccc(NC(=O)Nc2ccc(Oc3cc(N4CCNC[C@@H]4C)ncn3)cc2)cc1C(F)(F)F [Example 107, (S)-1-(4-methyl-3-(trifluoromethyl)phenyl)-3-(4-((6-(2-methylpiperazin-1-yl)pyrimidin-4-yl)oxy)phenyl)urea]
3 | > 10 | 7.82 | 6.17 | 1.47 | 0.291 |  | 0.014 | 0.312 | > 10 | 9.79 | 8.08 | CC(=O)Nc1cc(Sc2ccc(NC(=O)Cc3ccccc3C(F)(F)F)cc2)ncn1 [Example 67, N-[4-(6-acetylamino-pyrimidin-4-ylsulfanyl)-phenyl]-2-(2-trifluoromethyl-phenyl)-acetamide]
4 | 8.08 | 1.66 | 1.52 | 0.6 | 0.03 | 5.82 | 0.063 | 0.342 | 9.01 |  |  | Cc1ccc(NC(=O)Nc2ccc(Oc3cc(N4CCN(C(=O)OC(C)(C)C)C[C@H]4C)ncn3)cc2)cc1C(F)(F)F [Example 100, (R)-3-methyl-4-(6-(4-(3-(4-methyl-3-(trifluoromethyl)phenyl)ureido)phenoxy)pyrimidin-4-yl)piperazin-1-tert-butyl Formate]
5 | 1.07 | 0.277 | 0.376 | 0.612 | 0.024 |  | 0.012 | 0.084 | > 10 | > 10 | > 10 | CC(=O)Nc1cc(Oc2ccc(NC(=O)Cc3ccc(C(C)(C)C)cc3)cc2)ncn1 [Example 65, N-[4-(6-acetylamino-pyrimidin-4-yloxy)-phenyl]-2-(4-tert-butyl-phenyl)-acetamide]
6 | 1.88 | 0.433 | 0.917 | 0.195 | 0.014 |  | 0.011 | 0.026 | > 10 | > 10 | > 10 | CC(=O)Nc1cc(Oc2ccc(NC(=O)Cc3ccc(C)c(C)c3)cc2)ncn1 [Example 60, N-[4-(6-acetylamino-pyrimidin-4-yloxy)-phenyl]-2-(3,4-dimethyl-phenyl)-acetamide]
7 | > 10 | 9.67 | > 10 | 1.11 | 0.377 |  | 0.131 | 0.17 | > 10 | 9.61 | > 10 | C=CC(=O)NCCNc1cc(Nc2ccc(CC(=O)Nc3ccc(C)c(C(F)(F)F)c3)cc2)ncn1 [Example 140, N-[2-(6-{4-[(4-methyl-3-trifluoromethyl-phenylcarbamoyl)-methyl]-phenylamino}-pyrimidin-4-ylamino)-ethyl]-acrylamide]
8 | 0.377 | 0.711 | 2.6 | 0.034 | 0.014 |  | 0.017 | 0.079 | > 10 | > 10 | > 10 | Cc1ccc(NC(=O)Cc2ccc(Nc3cc(NCCN)ncn3)cc2)cc1C(F)(F)F [Example 138, 2-{4-[6-(2-amino-ethylamino)-pyrimidin-4-ylamino]-phenyl}-N-(4-methyl-3-trifluoromethyl-phenyl)-acetamide]
9 | 1.84 | 9.67 | 0.736 | 0.162 | 0.054 |  | 0.007 | 0.008 | > 10 | > 10 | > 10 | Cc1ccc(NC(=O)Nc2ccc(Oc3cc(NCC(N)=O)ncn3)cc2)cc1C(F)(F)F [Example 142, 2-(6-{4-[3-(4-methyl-3-trifluoromethyl-phenyl)-ureido]-phenoxy}-pyrimidin-4-ylamino)-acetamide]
10 | 6.58 | 1.18 | 0.81 | 0.39 | 0.05 |  | 0.045 | 0.231 | > 10 | > 10 | > 10 | COc1cc(CC(=O)Nc2ccc(Oc3cc(NC(C)=O)ncn3)cc2)cc(OC)c1OC [Example 62, N-[4-(6-acetylamino-pyrimidin-4-yloxy)-phenyl]-2-(3,4,5-trimethoxy-phenyl)-acetamide]
11 | 0.323 | 0.149 | 0.465 | 0.04 | 0.012 |  | 0.011 | 0.034 | > 10 | 9.93 | > 10 | Cc1ccc(NC(=O)Cc2ccc(Oc3cc(NCCN)ncn3)cc2)cc1C(F)(F)F [Example 137, 2-(4-((6-((2-aminoethyl)amino)pyrimidin-4-yl)oxy)phenyl)-N-(4-methyl-3-(trifluoromethyl)phenyl)acetamide]
12 | 9.98 | 8.91 | > 10 | 1 | 0.432 |  | 0.319 | 0.034 | > 10 | 9.8 | > 10 | CCC(=O)NCCNc1cc(Nc2ccc(CC(=O)Nc3ccc(C)c(C(F)(F)F)c3)cc2)ncn1 [Example 139, N-[2-(6-{4-[(4-methyl-3-trifluoromethyl-phenylcarbamoyl)-methyl]-phenylamino}-pyrimidin-4-ylamino)-ethyl]-propanamide]
13 | > 10 | 1.78 | 4.89 | 1.39 | 0.063 |  | 0.074 | 0.233 | 5.71 | 9.77 | 5.61 | COc1ccc(CC(=O)Nc2ccc(Oc3cc(NC(C)=O)ncn3)cc2)cc1OC [Example 61, N-[4-(6-acetylamino-pyrimidin-4-yloxy)-phenyl]-2-(3,4-dimethoxy-phenyl)-acetamide]
14 | 5.68 | 3.42 | 2.26 | 3 | 0.374 |  | 0.033 | 0.092 | > 10 | > 10 | > 10 | CC(C)(C)C(=O)Nc1cc(Oc2ccc(NC(=O)Cc3ccc(C(F)(F)F)cc3)cc2)ncn1 [Example 52, 2,2-dimethyl-N-(6-{4-[2-(4-trifluoromethyl-phenyl)-acetylamino]-phenoxy}-pyrimidin-4-yl)-propanamide]
15 | > 10 | 3.43 | > 10 | 4.68 | 0.325 |  | 0.476 | 5.75 | > 10 | > 10 | > 10 | CC(=O)Nc1cc(Oc2ccc(NC(=O)C(O)c3ccccc3F)cc2)ncn1 (stereo not drawn) [Example 63, N-[4-(6-acetylamino-pyrimidin-4-yloxy)-phenyl]-2-(2-fluoro-phenyl)-2-hydroxy-acetamide]
